{"source": "ChEMBL document CHEMBL5030514", "about": "“Discovery of Anti-TNBC Agents Targeting PTP1B: Total Synthesis, Structure-Activity Relationship, In Vitro and In Vivo Investigations of Jamunones” (J Med Chem, 2021)", "key": {"MCF7 [1]": {"test_system": "MCF7", "test": "Induction of apoptosis in human MCF-7 cells assessed as increase in Bax protein expression at 1.67 to 15 uM measured after 24 hrs by Western blot analysis", "assay_type": "functional, cell-based", "settings": "dose 1.67-15 µM"}, "MCF7 [2]": {"test_system": "MCF7", "test": "Cell cycle arrest in human MCF-7 cells assessed as downregulation of CDK6 expression by Western blot analysis", "assay_type": "functional, cell-based"}, "MDA-MB-231 [3]": {"test_system": "MDA-MB-231", "test": "Induction of mitochondrial apoptosis in human MDA-MB-231 cells assessed as early apoptotic cells at 5 uM measured after 24 hrs by FITC -annexin V/PI double staining based flow cytometric analysis (reference value: 1.2%)", "assay_type": "functional"}, "MCF7 [4]": {"test_system": "MCF7", "test": "Induction of mitochondrial apoptosis in human MCF-7 cells assessed as formation of apoptotic bodies by Hoechst 33258 staining based fluorescence microscopic assay", "assay_type": "functional, cell-based"}, "MDA-MB-231 [5]": {"test_system": "MDA-MB-231", "test": "Antitumour activity against human MDA-MB-231 cells xenografted in BALB/c nude mouse assessed as downregulation of cyclin E1 level at 15 to 30 mg/kg, ip administered once for every other day for 20 days by Western blot analysis", "assay_type": "functional, organism-based", "settings": "dose 15-30 mg/kg, time 20.0 day"}, "MDA-MB-231 [6]": {"test_system": "MDA-MB-231", "test": "Induction of mitochondrial apoptosis in human MDA-MB-231 cells assessed as accumulation of reactive oxygen species by flow cytometry", "assay_type": "functional, cell-based"}, "MCF7 [7]": {"test_system": "MCF7", "test": "Cell cycle arrest in human MCF7 cells assessed as accumulation of cells at G2/M phase at 15 uM measured after 24 hrs by propidium iodide staining based flow cytometry (reference value: 31%)", "assay_type": "functional"}, "MDA-MB-231 [8]": {"test_system": "MDA-MB-231", "test": "Effect on PI3K p85 expression in human MDA-MB-231 cells by Western blot analysis", "assay_type": "functional, cell-based"}}, "note": "The source made the active and inactive calls. The calls are words filed in the database; no cut-off is given here."}
{"smiles": "CCCC/C=C/CCCCCCCCCC1(O)CC(=O)c2c(O)c(C)c(O)c(C)c2O1", "note": "(stereo not drawn)", "values": [{"measurement": "Activity", "setting": "MCF7 [1]", "value": "Dose-Dependent Effect"}, {"measurement": "Activity", "setting": "MCF7 [2]", "value": "Dose-Dependent Effect"}, {"measurement": "Activity", "setting": "MDA-MB-231 [3]", "value": 4.8, "unit": "%"}, {"measurement": "Activity", "setting": "MCF7 [4]", "value": "Active"}, {"measurement": "Activity", "setting": "MDA-MB-231 [5]", "value": "Active"}, {"measurement": "Activity", "setting": "MDA-MB-231 [6]", "value": "Active"}, {"measurement": "Activity", "setting": "MCF7 [7]", "value": 22.7, "unit": "%"}, {"measurement": "Activity", "setting": "MDA-MB-231 [8]", "value": "inactive"}]}
